Experimental data as given in patent publication US6511662B1, “Treatment of cytomegalovirus using aminopeptidase N” (priority 1993, dated 2003).
Read-outs that look alike come from different tables or passages of the source.

How the values were obtained:
CMV strain AD169 = assay: CMV AD169 infection of HL734 cells in the presence of aminopeptidase inhibitors, mIE immunocytochemistry; type: cell-based, human cytomegalovirus
Text: FIG. 2. […] Infection was quantitatively determined by spectrophotometric measurement of the cleavage of p-nitrophenyl-β-D-galactopyranoside by β-gal. Panel b: HL734 were infected with CMV strain AD169 (▪) or Semliki Forest Virus (SFV) ([]) in the presence of increasing concentration of bestatin. Infection was quantitatively determined by immunocytochemistry using an antibody to the mIE protein of CMV or immune serum to SFV and enumeration of infected calls. Panel c: the binding of ^35S-HCMV to MRC-5 cells in the presence of mouse IgG (X) or antibody to APN (∘). Panel d: the aminopeptidase N activity on the surface of HL734 (▪), NIH-3T3 (∘), hAPN-3T3 ([]), or hAPNmut-3T3 (Δ) cells expressed as optical density of reaction product p-nitroanilide.
(§1) Method. Infection of HL734 with CMV RC256 was performed as described in FIG. 1 in the presence of serial dilutions of either UT71 or a control mouse ascites. Cells were washed, fixed with glutaraldhyde and assayed for β-gal expression by incubation with p-nitrophenyl-β-D-galactopyranoside (1 mg/ml) and the production of p-nitrophenol was measured spectrophotometrically at 410 nm. To measure the effect of aminopeptidase inhibitors on viral infection, HL734 were preincubated with increasing concentrations of bestatin for 1 hour at 37° C., infected with CMV strain AD169 at an MOI=1-10 or SFV at an MOI=30 for 1 hour at 37° C., washed, and incubated in fresh media for six hours at 37° C. After fixation in ice cold acetone/methanol (1/1), CMV nuclear antigens were detected with a mouse monoclonal to the 72K CMV mIE protein (NEW/Dupont, Inc.) followed by a phycoerythrine-labelled F(ab′)2 fragment of rabbit-anti mouse IgG Dakopatts, Inc). […] Binding of HCMV to MRC-5 cells was carried out by incubating increasing concentration of ^35S-HCMV with MRC-5 cells for 2 hours at 4° C. Incubation was carried out in the presence of mouse IgG (Sigma, Inc.) or anti-leuM7 (Becton Dickinson, Inc.) at a concentration of 16 μg/ml. Cells were washed five times with hepes-buffered saline, solubilized with 0.5 M NaOH, and cell-associated ^35S-labelled virions was measured quantitatively by liquid scintillation counting. Aminopeptidase activity on intact cells was measured by plating 1-5×10^4 cells in 96-well plates, incubating overnight in fresh media, and the washed and incubated with alanine-p-nitroanilide (6 mM) at 37° C. At various times, the free p-nitroanilide released was measured spectrophoto-metrically at 410 nm. The aminopeptidase activity was normalized to cell number measured by BCA protein assay (Pierce). All measurements were determined in triplicate.
(§2) To investigate whether the enzymatic activity of APN is necessary for CMV infection, four different aminopeptidase inhibitors, actinonin, bestatin, 2,2′-dipyridyl and 1,10-phenanthroline, were evaluated for their effect on enzymatic activity and CMV infection bestatin and actinonin are competitive inhibitors of arinoneptidases, ard 1,10-phenanthroline and 2,2′-dipyridyl inhibit aminopeptidase activity by chelating zinc required for enzyme function.

[1] = tested on: Semliki Forest Virus (SFV); assay: Semliki Forest Virus infection of HL734 cells, immunocytochemistry; type: cell-based; settings: concentrations as in footnote d
Text: FIG. 2. Ability to inhibit infection by compounds that interact with human aminopeptidase N. Panel a: HL734 cells were infected with CMV strain RC256 in the presence of serial dilutions of either U71 (▪) or control mouse ascites ([]). Infection was quantitatively determined by spectrophotometric measurement of the cleavage of p-nitrophenyl-β-D-galactopyranoside by β-gal. Panel b: HL734 were infected with CMV strain AD169 (▪) or Semliki Forest Virus (SFV) ([]) in the presence of increasing concentration of bestatin. Infection was quantitatively determined by immunocytochemistry using an antibody to the mIE protein of CMV or immune serum to SFV and enumeration of infected calls. Panel c: the binding of ^35S-HCMV to MRC-5 cells in the presence of mouse IgG (X) or antibody to APN (∘). Panel d: the aminopeptidase N activity on the surface of HL734 (▪), NIH-3T3 (∘), hAPN-3T3 ([]), or hAPNmut-3T3 (Δ) cells expressed as optical density of reaction product p-nitroanilide.
as §1, with “Incubation was carried out in the presence of mouse IgG (Sigma, Inc.) or anti-leuM7 (Becton Dickinson, Inc.) at a concentration of 16 μg/ml.” left out

human aminopeptidase N = molecular target: T1, human aminopeptidase N (Homo sapiens, UniProt P15144); assay: Aminopeptidase activity on intact cells with substrate alanine-p-nitroanilide; type: cell-based; settings: concentrations as in footnote d
T1 construct: endogenous in cells
T1 sequence (P15144 whole entry): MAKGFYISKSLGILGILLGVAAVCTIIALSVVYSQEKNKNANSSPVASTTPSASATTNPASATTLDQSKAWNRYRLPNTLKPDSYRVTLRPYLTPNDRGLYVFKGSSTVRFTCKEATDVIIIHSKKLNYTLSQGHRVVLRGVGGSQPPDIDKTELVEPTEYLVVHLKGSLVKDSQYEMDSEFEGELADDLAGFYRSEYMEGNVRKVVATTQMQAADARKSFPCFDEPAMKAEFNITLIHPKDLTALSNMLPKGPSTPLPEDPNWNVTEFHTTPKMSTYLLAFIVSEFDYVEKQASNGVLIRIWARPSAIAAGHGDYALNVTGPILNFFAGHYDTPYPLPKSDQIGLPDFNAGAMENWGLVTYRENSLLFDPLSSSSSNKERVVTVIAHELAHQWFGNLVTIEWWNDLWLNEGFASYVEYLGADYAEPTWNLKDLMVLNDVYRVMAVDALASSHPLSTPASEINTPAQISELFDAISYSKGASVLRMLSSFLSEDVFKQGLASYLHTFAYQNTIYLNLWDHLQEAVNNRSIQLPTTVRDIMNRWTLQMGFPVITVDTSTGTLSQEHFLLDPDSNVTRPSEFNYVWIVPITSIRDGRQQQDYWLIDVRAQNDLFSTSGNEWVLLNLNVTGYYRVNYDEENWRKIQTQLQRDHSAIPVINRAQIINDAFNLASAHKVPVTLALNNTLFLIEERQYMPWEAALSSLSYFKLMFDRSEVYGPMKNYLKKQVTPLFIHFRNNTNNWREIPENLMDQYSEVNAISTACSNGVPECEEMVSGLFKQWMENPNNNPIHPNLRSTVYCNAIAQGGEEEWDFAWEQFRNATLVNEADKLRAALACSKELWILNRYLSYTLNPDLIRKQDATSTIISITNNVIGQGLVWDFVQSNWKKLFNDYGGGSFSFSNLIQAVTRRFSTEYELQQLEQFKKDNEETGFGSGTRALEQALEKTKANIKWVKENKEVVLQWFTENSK
Experimental: as §1
as §2, with “function. […] Toxicity of these substances, measured by trypan blue uptake in cells treated with the inhibitors, was less than 10% in the highest concentrations used (data not shown).” for “function.”

[2] = Human betaherpesvirus 5, AD169, read-out: 50% inhibitory dose for CMV infection
[3] = chemical inhibitors at maximum non-toxic concentration: actinonin 5.45 mM, bestatin 4.35 mM, 1,10-phenanthroline 0.45 mM, 2,2′-dipyridyl 3.74 mM

SMILES	IC50 (CMV strain AD169; [2]) [µM]	Inhibition of CMV Infection (CMV strain AD169; [3])	Inhibition of SFV Infection [1]	Inhibition of aminopeptidase activity (human aminopeptidase N)	IC50 (CMV strain AD169; HL734 cells, CMV AD169, read-out: 50% inhibitory dose for CMV infection) [µM]	inhibition at 5450 µM (CMV strain AD169; Human betaherpesvirus 5, AD169, chemical inhibitors at maximum non-toxic concentration: actinonin 5.45 mM, bestatin 4.35 mM, 1,10-phenanthroline 0.45 mM, 2,2′-dipyridyl 3.74 mM) [%]	IC50 (CMV strain AD169; Human betaherpesvirus 5, HL734 cells, CMV AD169, read-out: 50% inhibitory dose for CMV infection) [µM]	inhibition at 4350 µM (CMV strain AD169; Human betaherpesvirus 5, AD169, read-out: Inhibition of CMV Infection) [%]
c1cnc2c(c1)ccc1cccnc12 [1,10-phenanthroline]	250	+ (+ = >50 inhibition compared to mouse IgG control)	− (− = no inhibition)	+ (+ = >50 inhibition compared to mouse IgG control)				
c1ccc(-c2ccccn2)nc1 [2,2′-dipyridyl]		+ (+ = >50 inhibition compared to mouse IgG control)	− (− = no inhibition)	+ (+ = >50 inhibition compared to mouse IgG control)	2800			
CCCCC[C@H](CC(=O)NO)C(=O)N[C@H](C(=O)N1CCC[C@H]1CO)C(C)C [actinonin]			− (− = no inhibition)	+ (+ = >50 inhibition compared to mouse IgG control)		> 50	3300	
CC(C)C[C@H](NC(=O)[C@@H](O)[C@H](N)Cc1ccccc1)C(=O)O [bestatin]	2500		− (− = no inhibition)	+ (+ = >50 inhibition compared to mouse IgG control)				> 50
